These results are taken from patent US9073895B2 (Boehringer Ingelheim International GmbH, priority 2010, dated 2015).

Usually pIC50 stands for the IC50 on a negative log10 scale, so that one unit is a factor of ten.

The target in experiment [1] is T1, recombinant human FLAP protein (Homo sapiens, UniProt P20292).
T1 construct: made in house; host or cells: Sf9 insect cells (membrane fraction, 100,000 x g pellet)
T1 sequence (P20292 1-161): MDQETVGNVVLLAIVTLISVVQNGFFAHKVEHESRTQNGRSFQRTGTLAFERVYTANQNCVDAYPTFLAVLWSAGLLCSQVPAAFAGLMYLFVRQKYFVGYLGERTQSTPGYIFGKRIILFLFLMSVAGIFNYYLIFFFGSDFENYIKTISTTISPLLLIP
The experiment in a line: FLAP binding assay (SPA, displacement of [125I]L-691,831). The following applies: membranes of sf9 cells expressing human FLAP, [125I]L-691,831 probe; read-out: hFLAP binding IC50. The gist of the method: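 Membranes from sf9 cells expressing human FLAP (5 μg/well) were bound to WGA SPA beads (200 μg/well). Nonspecific binding was defined with 10 μM unlabelled L-691,831.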
Background: Displacement assays read how much labelled ligand stays bound in the presence of the test substance.

For experiment [2], the system named is synthesis of LTB4 in human whole blood. The experiment is described as follows: Human whole blood LTB4 production inhibition assay. It counts as cell-based. The conditions noted are these: heparinized human whole blood, calcimycin 20 μM, plasma LTB4; read-out: HuWB IC50. The procedure: Compounds are additionally tested in a human whole blood assay to determine their ability to inhibit the synthesis of LTB4 in a cellular system. Compounds are combined with heparinized human whole blood and incubated for 15 minutes at 37° C. Calcimycin (20 μM final, prepared in phosphate-buffered saline, pH 7.4) is then added and the mixture is incubated for another 30 minutes at 37° C. The samples are centrifuged for 5 min at low speed (1500×g) and the plasma layer is removed. Plasma LTB4 concentrations are then measured using an antibody-based homogenous time-resolved fluorescence method (CisBio, Bedford, Mass.).

pIC50: −log10 of the molar value.

Take `COC(=O)c1sc(-c2ccccc2)cc1NC(=O)C1(c2ccc(-c3cnc(N)nc3)cc2)CCOCC1` [Example 30, methyl 3-[({4-[4-(2-aminopyrimidin-5-yl)phenyl]tetrahydro-2H-pyran-4-yl}carbonyl)amino]-5-phenylthiophene-2-carboxylate]: the values for the pIC50 in experiment [1] and in experiment [2] were 7.74 and 5.65, respectively.
Consider `N#Cc1ccc(NC(=O)C2(c3ccc(-c4cnc(N)nc4)cc3)CCOCC2)nc1` [Example 32, 4-[4-(2-aminopyrimidin-5-yl)phenyl]-N-(5-cyanopyridin-2-yl)tetrahydro-2H-pyran-4-carboxamide], for which the pIC50 is 7.33 in experiment [1] and 5.95 in experiment [2].
For `Nc1ncc(-c2ccc(C3(C(=O)Nc4cccc(-c5ccncc5)c4)CCOCC3)cc2)cn1` [Example 33, 4-[4-(2-aminopyrimidin-5-yl)phenyl]-N-[3-(pyridin-4-yl)phenyl]tetrahydro-2H-pyran-4-carboxamide] the same measures were 7.37 and less than 5.52.
The like results for `Nc1ncc(-c2ccc(C3(C(=O)Nc4ccc(-c5ccncc5)cc4)CCOCC3)cc2)cn1` [Example 34, 4-[4-(2-aminopyrimidin-5-yl)phenyl]-N-[4-(pyridin-4-yl)phenyl]tetrahydro-2H-pyran-4-carboxamide] were, in that order, 7.93 and 6.79.
For `Nc1ncc(-c2ccc(C3(C(=O)Nc4nc(-c5ccccc5)ns4)CCOCC3)cc2)cn1` [Example 36, 4-[4-(2-aminopyrimidin-5-yl)phenyl]-N-(3-phenyl-1,2,4-thiadiazol-5-yl)tetrahydro-2H-pyran-4-carboxamide] the same measures were 7.88 and less than 5.52.
On to `Nc1ncc(-c2ccc(C3(C(=O)Nc4cc(-c5ccccc5)no4)CCOCC3)cc2)cn1` [Example 37, 4-[4-(2-aminopyrimidin-5-yl)phenyl]-N-(3-phenyl-1,2-oxazol-5-yl)tetrahydro-2H-pyran-4-carboxamide], for which the results for the negative-log IC50 (pIC50) in experiment [1] and in experiment [2] were 7.46 and less than 5.52, respectively.
Turning to `Cc1cc(C)c2ccc(NC(=O)C3(c4ccc(-c5cnc(N)nc5)cc4)CCOCC3)nc2n1` [Example 38, 4-[4-(2-aminopyrimidin-5-yl)phenyl]-N-(5,7-dimethyl-1,8-naphthyridin-2-yl)tetrahydro-2H-pyran-4-carboxamide], the pIC50 in experiment [1] is 7.23; in experiment [2], less than 5.52.
Take `Nc1ncc(-c2ccc(C3(C(=O)Nc4ccc(OC(F)(F)F)cc4)CCOCC3)cc2)cn1` [Example 39, 4-[4-(2-aminopyrimidin-5-yl)phenyl]-N-[4-(trifluoromethoxy)phenyl] tetrahydro-2H-pyran-4-carboxamide]: the pIC50 in experiment [1] is 7.26; in experiment [2] it was 5.72.
The like results for `N#Cc1ccc(NC(=O)C2(c3ccc(-c4cnc(N)nc4)cc3)CCOCC2)cc1C(F)(F)F` [Example 40, 4-[4-(2-aminopyrimidin-5-yl)phenyl]-N-[4-cyano-3-(trifluoromethyl)phenyl] tetrahydro-2H-pyran-4-carboxamide] were, in that order, 7.54 and 5.91.
The like results for `Nc1ncc(-c2ccc(C3(C(=O)Nc4ccc(C(F)(F)F)cc4)CCOCC3)cc2)cn1` [Example 41, 4-[4-(2-aminopyrimidin-5-yl)phenyl]-N-[4-(trifluoromethyl)phenyl] tetrahydro-2H-pyran-4-carboxamide] were, in that order, 6.92 and less than 5.52.
The like results for `CCOC(=O)c1sc2ccc(NC(=O)C3(c4ccc(-c5cnc(N)nc5)cc4)CCOCC3)cc2c1C` [Example 43, ethyl 5-[({4-[4-(2-aminopyrimidin-5-yl)phenyl]tetrahydro-2H-pyran-4-yl}carbonyl)amino]-3-methyl-1-benzothiophene-2-carboxylate] were, in that order, 7.91 and less than 5.52.
Turning to `Nc1ncc(-c2ccc(C3(C(=O)Nc4ccc(-c5cccnc5)cc4)CCOCC3)cc2)cn1` [Example 45, 4-[4-(2-aminopyrimidin-5-yl)phenyl]-N-[4-(pyridin-3-yl)phenyl]tetrahydro-2H-pyran-4-carboxamide], the values for the pIC50 in experiment [1] and in experiment [2] were 8.21 and 6.34, respectively.
Turning to `Cc1cc(NC(=O)C2(c3ccc(-c4cnc(N)nc4)cc3)CCOCC2)cc(C(F)(F)F)c1` [Example 46, 4-[4-(2-aminopyrimidin-5-yl)phenyl]-N-[3-methyl-5-(trifluoromethyl)phenyl] tetrahydro-2H-pyran-4-carboxamide], the pIC50 in experiment [1] is 6.74; in experiment [2], less than 5.52.
As to `CC(C)(C)c1cc(NC(=O)C2(c3ccc(-c4cnc(N)nc4)cc3)CCOCC2)ccn1` [Example 47, 4-[4-(2-aminopyrimidin-5-yl)phenyl]-N-(2-tert-butylpyridin-4-yl)tetrahydro-2H-pyran-4-carboxamide], the pIC50 is 7.19 in experiment [1] and 5.49 in experiment [2].
For `Nc1ncc(-c2ccc(C3(C(=O)Nc4ccc(C(F)(F)F)nc4)CCOCC3)cc2)cn1` [Example 48, 4-[4-(2-aminopyrimidin-5-yl)phenyl]-N-[6-(trifluoromethyl)pyridin-3-yl]tetrahydro-2H-pyran-4-carboxamide], the pIC50 in experiment [1] is 7.08; in experiment [2], 5.79.
The like results for `Nc1ncc(-c2ccc(C3(C(=O)Nc4ccc(OCc5ccccc5)c(Cl)c4)CCOCC3)cc2)cn1` [Example 49, 4-[4-(2-aminopyrimidin-5-yl)phenyl]-N-[4-(benzyloxy)-3-chlorophenyl]tetrahydro-2H-pyran-4-carboxamide] were, in that order, 7.57 and 6.27.
On to `Nc1ncc(-c2ccc(C3(C(=O)Nc4ccc5cnccc5c4)CCOCC3)cc2)cn1` [Example 51, 4-[4-(2-aminopyrimidin-5-yl)phenyl]-N-(isoquinolin-6-yl)tetrahydro-2H-pyran-4-carboxamide], for which the pIC50 in experiment [1] was 7.74; in experiment [2], 5.77.
With `Cc1nc(NC(=O)C2(c3ccc(-c4cnc(N)nc4)cc3)CCOCC2)ccc1C#N` [Example 52, 4-[4-(2-aminopyrimidin-5-yl)phenyl]-N-(5-cyano-6-methylpyridin-2-yl)tetrahydro-2H-pyran-4-carboxamide], the pIC50 in experiment [1] was 7.20; in experiment [2], 5.74.
The like results for `Nc1ncc(-c2ccc(C3(C(=O)Nc4ccc(Cc5ccccc5)cc4)CCOCC3)cc2)cn1` [Example 54, 4-[4-(2-aminopyrimidin-5-yl)phenyl]-N-(4-benzylphenyl)tetrahydro-2H-pyran-4-carboxamide] were, in that order, 7.35 and 5.95.
The like results for `Nc1ncc(-c2ccc(C3(C(=O)Nc4nc5ccccc5s4)CCOCC3)cc2)cn1` [Example 55, 4-[4-(2-aminopyrimidin-5-yl)phenyl]-N-(1,3-benzothiazol-2-yl)tetrahydro-2H-pyran-4-carboxamide] were, in that order, 7.54 and less than 5.52.
As to `Nc1ncc(-c2ccc(C3(C(=O)Nc4cc(-c5ccncc5)no4)CCOCC3)cc2)cn1` [Example 58, 4-[4-(2-aminopyrimidin-5-yl)phenyl]-N-[3-(pyridin-4-yl)-1,2-oxazol-5-yl]tetrahydro-2H-pyran-4-carboxamide], the results for the pIC50 in experiment [1] and in experiment [2] were 6.77 and less than 5.52, respectively.
The like results for `Nc1ncc(-c2ccc(C3(C(=O)Nc4nc(-c5ccccn5)cs4)CCOCC3)cc2)cn1` [Example 59, 4-[4-(2-aminopyrimidin-5-yl)phenyl]-N-[4-(pyridin-2-yl)-1,3-thiazol-2-yl]tetrahydro-2H-pyran-4-carboxamide] were, in that order, 7.90 and less than 5.52.
